Measurements as given in patent publication US8637040B2, “Genus-wide chlamydial peptide vaccine antigens” (priority 2008, dated 2014).

Tests used:
C trachomatis = assay: DFA staining of vaginal smears after challenge of peptide-immunized mice; assay type: in vivo, mouse; settings: mice immunized three times at 100 μg doses; days 7 and 14 post-challenge
Text: Mice are challenged with a human biovar of C trachomatis (K or E serovars for urogenital infections; C or B serovars for ocular infection).
Groups of 4-8 mice are “masked” as to pretreatment before challenge with live elementary bodies (EB). At weekly intervals through at least 4 wks, vaginal (or conjunctival) swabs are collected for isolation culture and direct fluorescence antibody staining for EB.
Using the murine models described above, the present inventors immunized mice with one of the four peptides (Pep4, 7, 8 or 10) administered three times at 100 μg doses. Results of direct fluorescent antibody (DFA) staining are summarized for days 7 and 14 post-challenge in FIGS. 10-11.

chlamydia = assay: Gross anatomical observation of genital tract inflammation after challenge; assay type: in vivo, mouse; settings: female mice primed and boosted twice SC, necropsy ~28 days post-challenge, vs adjuvant-only control
Text: FIG. 15A-15C is a set of three photographs showing the gross morphology of tissues of the female reproductive tract of mice immunized and then challenged 28 days earlier with Pep4 or Pep7. Mice had been primed and boosted twice SC, as above, and were challenged with chlamydia 2 weeks later, rechallenged and sacrificed 4 weeks after re-challenge. Inflamed genital tracts outlined in dashed lines.
Genital tracts were exposed at necropsy ˜28 days post-challenge to score inflammatory changes (and then removed for histological analysis). […] Representative examples for recipients of Peptides 4 and 7 are shown in the center and right panels, respectively. Yellow arrows point to uterine horns (which are further demarcated with dashed lines). It is evident that the peptide immunogens reduced the gross pathology of the genital tract even weeks after challenge. This has been reproduced in a second experiment in which control mice received an irrelevant peptide instead of Peptides 4 or 7. Based on what is known in the art from other contexts, the histopathological results are expected to be consistent with these gross anatomical observations.

mice = assay: Anti-Pep4 ELISA after SC immunization with free vs. PLA-microencapsulated Pep4; assay type: in vivo, mouse; settings: SC x 3; free Pep4 40 μg, Pep4-MP 10, 20 and 40 μg
Protocol: FIG. 17A-17F show results in ELISA of sera of mice immunized SC with various doses of the Pep4 as immunogen antigen either as free peptide or encapsulated in PLA microparticles (Pep4-MP). MP's were loaded at levels of between about 7.5 and about 9 μg peptide per mg PLA. Δ-Δ: results of pre-bleeds (before immunization). (▴-▴: results after a single primary immunization. ◯-◯: results after 1st boost. ●-●: results after 2nd boost. ▾-▾: results at the time of terminal bleed (day 28). Each point represents the mean absorbance value (OD405) for the sera of 4 or 5 individual mice of the designated group.
Additional studies were conducted to evaluate and compare the effects of immunization with the present peptides in free vs. microencapsulated form in PLA microparticles (MPs). Results are shown in FIGS. 17, 18A-18F and 19A-19B.
Mice were immunized subcutaneously 3 times (primary, 1st first boost at day 14, 2nd boost at day 28) according to a schedule shown below with the indicated peptide antigen or soluble mAb2 polypeptide or were control animals that were infected but not immunized (relevant for FIG. 18A-F). Free Pep4 peptide was tested at the 40 μg dose, whereas Pep4-MP was tested at 10, 20 and 40 μg doses. Blood was collected before each immunization and at the end of the experiment (day +28).

human sera = assay: ELISA of human serum samples on 4 peptides (Example XI); assay type: binding
Protocol: Blood was collected prior to immunizations and prior to the two boosts. Sera were tested in ELISA. The ELISA method used in the present examples, in which many if not all the parameters and conditions may be varied or modified in ways that are completely conventional in the art, is described below. • 1. 96 well plates (Immulon HBX4) were coated with 50 μl of diluted antigen (peptides at 1 μg/well made in carbonate buffer) and incubated overnight at 4° C. • 2. Unbound antigen was removed by flicking the contents of the plate into a sink without further washing. • 3. Non-specific binding was blocked or prevented by adding 300 μL/well of 4% BSA/PBS-Tween 20 (0.05%). This was allowed to incubate for 2 hour at room temperature. • 4. The plates were washed once with PBS-Tween 20 (0.05%) and 50 μl of primary antibody was added per well at appropriate dilutions. When using serum, the starting dilution was 1:40 and was further diluted by doublings to 1:80, 1:160, and 1:320 (or higher as desired). Plates were incubated for 1 hour at 37° C. • 5. Plates were washed three times with PBS-Tween (0.05%) as above and 100 μl of secondary antibody was added per well at appropriate dilutions. For alkaline phosphatase-conjugated goat anti-mouse IgG-AP, a dilution of 1:500 was used here. Plates were incubated for 1 hour at 37° C. • 6. Plates were again washed three times as above and 200 μl of substrate solution for Alkaline phosphatase (p-nitro phenyl phosphate or pNPP) was added at a concentration of 5 mg/ml. The color reaction was read in an automated microplate reader at a frequency of […] and the absorbance (or optical density) was registered (referred to as A405 or OD405) Several important observations were made in these tests against the 4 peptides: (a) all 4 peptides were immunogenic and induced increasing anti-peptide responses with subsequent boosts in all mice (except in one non-responder) (FIG. 3). […] See also FIG. 16A-16B
Human sera were tested by PCR for expression of several chlamydial genes, by IHC against C. trachomatis-infected cells and by ELISA against several of the peptides of the present invention. Results are shown in Table 7 (below) which include results from PCR-studies for presence of DNA encoding the chlamydial Major Outer Membrane Protein (MOMP) in human peripheral blood mononuclear cells (PBMC) (which are primarily lymphocytes and monocytes) and cervical swabs
Also shown is IHC staining of C. trachomatis-infected human HEp2 cells and binding of antibodies in the patient samples to four peptides of the present invention (Pep4, 7, 8, and 10) in ELISA.

**Q.** For AFPQFRSATLLL [Pep4], which DFA scores (C trachomatis) is on record?
**A.** reduced DFA scores

**Q.** What about the “bacterial shedding measured by DFA staining” value (C trachomatis) of the same sequence?
**A.** reduced bacterial shedding

**Q.** What about the “gross inflammation / pathology of the genital tract” value (chlamydia) of the same sequence?
**A.** not nearly as inflamed

**Q.** And the “anti-Pep4 antibody responses (ELISA)” value (mice)?
**A.** not as immunogenic as encapsulated Pep4 at equal or lower doses

**Q.** And the “ELISA 1:40 on 4 peptides Scale: 1+-3+” value (human sera; human serum sample # 1)?
**A.** 2

**Q.** And the “ELISA 1:40 on 4 peptides Scale: 1+-3+” value (human sera; human serum sample # 2)?
**A.** 0.75

**Q.** And the “ELISA 1:40 on 4 peptides Scale: 1+-3+” value (human sera; human serum sample # 3)?
**A.** 2.5

**Q.** And the “ELISA 1:40 on 4 peptides Scale: 1+-3+” value (human sera; human serum sample # 5)?
**A.** 2

**Q.** And the “ELISA 1:40 on 4 peptides Scale: 1+-3+” value (human sera; human serum sample # 7)?
**A.** 0.75

**Q.** What about the “ELISA 1:40 on 4 peptides Scale: 1+-3+” value (human sera; human serum sample # 8) of the same sequence?
**A.** 3

**Q.** And the “ELISA 1:40 on 4 peptides Scale: 1+-3+” value (human sera; human serum sample # 9)?
**A.** 3

**Q.** And the “ELISA 1:40 on 4 peptides Scale: 1+-3+” value (human sera; human serum sample # 10)?
**A.** 3

**Q.** And the “ELISA 1:40 on 4 peptides Scale: 1+-3+” value (human sera; human serum sample # 12)?
**A.** 2

**Q.** And the “ELISA 1:40 on 4 peptides Scale: 1+-3+” value (human sera; human serum sample # 13)?
**A.** 2

**Q.** What about the “ELISA 1:40 on 4 peptides Scale: 1+-3+” value (human sera; human serum sample # 16) of the same sequence?
**A.** 2

**Q.** And the “ELISA 1:40 on 4 peptides Scale: 1+-3+” value (human sera; human serum sample # 18)?
**A.** 2.5

**Q.** What about the “ELISA 1:40 on 4 peptides Scale: 1+-3+” value (human sera; human serum sample # 21) of the same sequence?
**A.** 1.5

**Q.** And the “ELISA 1:40 on 4 peptides Scale: 1+-3+” value (human sera; human serum sample # 22)?
**A.** 1.5

**Q.** And the “ELISA 1:40 on 4 peptides Scale: 1+-3+” value (human sera; human serum sample # 23)?
**A.** 2

**Q.** And the “ELISA 1:40 on 4 peptides Scale: 1+-3+” value (human sera; human serum sample # 24)?
**A.** 3

**Q.** And the “ELISA 1:40 on 4 peptides Scale: 1+-3+” value (human sera; human serum sample # 26)?
**A.** 2
